According to US20060128605A1, “Preventives/remedies for snore or respiratory disturbances during sleep” (AJINOMOTO CO. INC, priority 2003, published 2006):

Key:
[1] = system: snoring of the test recipient during sleep; test: snoring evaluation by a family member after tablets taken before bedtime; type: in vivo, human; conditions: Experiment 1
Procedure: (§1) In addition, sleep apnea and arterial blood oxygen saturation (SpO2) were evaluated using a sleep tester LT-200 manufactured by FUKUDA DENSHI Co., Ltd. (Japan). […] The test recipient was completely free of regular medication, and had no habit of taking nutritional supplements or nutritional supports. […] The test recipient took an appropriate number (2-4) of the glycine tablets or the control tablets, and interviewed a family member the next morning as to the presence or absence of snoring and the level thereof, without informing the family member of the kind of the tablets and whether they took the tablets.
The presence or absence of snoring during sleep was evaluated the next morning by a family member into three levels of minus (−; snoring was not heard or like sleep breath), plus (+; medium level snoring), two plus (++; extremely noisy and severe snoring). The presence or absence of snoring when the glycine tablets and control tablets were taken before bedtime, and nothing was taken before bedtime was counted.

[2] = system: male adults having sleep apnea syndrome; conditions: glycine 3 g 1 hour before sleep
Procedure: For confirmation of the effect of glycine on respiratory disorders during sleep, a double blind crossover test was performed with 10 male adults having sleep apnea syndrome as evidenced by more than 5 of the following AHI (apnea hypopnea index per 1 hour). Glycine (3 g) was administered 1 hour before sleep and, as the placebo, maltose adjusted to an indistinguishable taste was used.
Sleep polygraph data such as electroencephalogram, electromyogram, arterial blood oxygen saturation, and the like during sleep were measured using the Alice system manufactured by Respironics Co., Ltd. (USA). The air flow of the mouth-nose part was measured, and hypopnea was defined to mean a state where a decrease to not more than 50% requires not less than 10 second to recover to not less than 60%. Furthermore, a decrease in the arterial blood oxygen saturation by not less than 3% associated with hypopnea was taken as apnea. The total of the incidents of apnea and hypopnea per 1 hour was taken as an apnea hypopnea index (AHI) and used as a severity index of respiratory disorder during sleep.

[3] = system: sleep apnea and SpO2 decrease during sleep; conditions: Experiment 3, glycine tablets (4 tablets) before bedtime
Procedure: as §1
The arterial blood oxygen saturation (SpO2) and air flow in the mouth-nose during sleep were measured using a sleep tester LT-200 manufactured by FUKUDA DENSHI Co., Ltd. The arterial blood oxygen saturation (SpO2) was measured using a sensor attached to the tip of the second finger of the left hand, and a decrease in the arterial blood oxygen saturation (SpO2) to not more than 93% which lasted for not less than 10 seconds was taken as SpO2 decrease. The number of SpO2 decrease per one day and per one hour and the minimum SpO2 of one day were determined. The air flow in the mouth-nose part was measured by a thermocapsule method, and a decrease in the flow in the mouth-nose part to not more than 50% which lasted for not less than 10 sec was defined as hypopnea. The occurrence of SpO2 decrease along with hypopnea was counted as apnea and the number of apnea per one day and per one hour was determined. Simultaneously, tracheal sounds during sleep were picked up through a mike set near laryngeal prominence.
The sleep apnea suppressing effect of glycine was evaluated. […] Tracheal sounds during sleep, which is considered to reflect the snoring sound, were simultaneously recorded.

sleep apnea syndrome = conditions: animal experiments using rats; cited from earlier work
[4] = 2 glycine tablets (glycine 490 mg) before bedtime, 9 days of observation
[5] = 4 glycine tablets (glycine 980 mg) before bedtime, 8 days of observation
[6] = SpO2 not more than 93% for not less than 10 seconds

## NCC(=O)O [glycine]
[1]; [4]
  snoring evaluation results ++, number of days (severe snoring): 2 days
  snoring evaluation results ++, percentage of total observation days: (22%)
  snoring evaluation results +, number of days (medium level snoring): 3 days
  snoring evaluation results +, percentage of total observation days: (33%)
  snoring evaluation results −, number of days (snoring not heard or like sleep breath): 4 days
  snoring evaluation results −, percentage of total observation days: (44%)
[1]; [5]
  snoring evaluation results ++, number of days (severe snoring): 0 days
  snoring evaluation results ++, percentage of total observation days: (0% a))
  snoring evaluation results +, number of days (medium level snoring): 2 days
  snoring evaluation results +, percentage of total observation days: (25%)
  snoring evaluation results −, number of days (snoring not heard or like sleep breath): 6 days
  snoring evaluation results −, percentage of total observation days: (75%)
[2]; 4 cases, placebo 18.9 (p=0.046)
  average value of AHI, test recipients of 40 years old or over with BMI exceeding 28: 10.6
[2]; 6 cases, entire sleep stage, placebo 17.2 (p=0.062)
  average value of AHI, test recipients of 40 years old or over: 11.5
[2]; early stage of sleep (3 hours), FIG. 4 right graph
  respiratory disorder (hypopnea or apnea, AHI) in the early stage of sleep: improved
[2]; entire sleep stage, 10 male adults, placebo 11.3
  average value of AHI, nonrem sleep stage (NREM): 10.8
[2]; entire sleep stage, 10 male adults, placebo 15.0
  average value of AHI, entire period (Total) of rem and nonrem sleep stage: 13.4
[2]; entire sleep stage, 10 male adults, placebo 33.5
  average value of AHI, rem sleep stage (REM): 26.8
[3]
  SpO2 lowest value during sleep: 88 ± 1%
  apnea (times/day): 11 ± 4 times/day
  apnea (times/hr): 1.9 ± 0.9 times/hr
[3]; [6]
  SpO2 decrease (times/day): 14 ± 5 times/day
  SpO2 decrease (times/hr): 2.5 ± 1.2 times/hr

## Nc1nc2ccc(OC(F)(F)F)cc2s1 [riluzole]
Sleep apnea syndrome
  effectiveness for the treatment of sleep apnea syndrome: has been confirmed
